Data: US20160208297A1, “OMEGA3 UNSATURATED FATTY ACID ENZYME AND METHOD FOR PRODUCING EICOSAPENTAENOIC ACID” (KYOTO UNIVERSITY, priority 2013, published 2016)

B1: polypeptide (SEQ ID NO: 2): ω3 desaturase derived from Pythium folliculosum or Pythium torulosum, encoded by cDNA SEQ ID NO: 1 (protein, listed as Pythium folliculosum)
chain: MADVNTSSPAAAPVATPEPFEFPSLTELKRSIPARYFESSAPRSLLFTARAFAFAYAFGAALFHARQLPLVAEHAALDALLCAAYTFLQGVNMWGFFTIGHDCGHGSFSRYHLLNFVVGTLTHSLILTPYEAWKLSHRLHHKNTGNIDQDEIFYPQRKETVNDPARKMVLSFGLAWWIYEIIGFPPRTEEHTELRDSLFSRHLITGSLSVLAHLACVMLAFNLTYVLGWATMGVYYWAPLFVFASMLVITTFLHHNDEETPWYADSEWTYVKGNLSSVDRDYGWVVNHLSHNIGTHQVHHLFPIIPHYNLNGATEYFRKAFPHLVRKSDDRILPAFVRVGLLYVKYGVIENDAKHFSLKDNREVLTKRA
modifications: Omega-3 desaturase

System: polypeptide (SEQ ID NO: 2) ω3 desaturase
Assay: conversion of added ω6 unsaturated fatty acids to ω3 unsaturated fatty acids by yeast transformant expressing the cDNA (SEQ ID NO: 1)
Format: cell-based, Pythium folliculosum
Conditions: for conversion into the corresponding ω3 unsaturated fatty acid / Conversion rate (%): Saccharomyces cerevisiae InvSc1 transformant, 28° C., two days; for Conversion rate (%): substrate added to medium, [product amount/(substrate amount + product amount)] × 100
Procedure: The cDNA (SEQ ID NO: 1) prepared in the above was integrated into a yeast expression vector, pYE22m (Biosci. Biotech. Biochem., 1995, 59: 1221-1228). The vector was introduced into Saccharomyces cerevisiae InvSc1 strain (tryptophan auxotrophy […]) by an electroporation method to obtain a transformant. The transformant was cultured in YPD culture medium (polypeptone 20 g, yeast extract 10 g, adenine 0.4 g, agar 20 g and glucose 20 g were diluted in 1,000 mL of water) at 28° C. for one day to express the polypeptide from cDNA integrated therein. Note that ω3 desaturase inherent in the oleaginous yeast is not expressed in this culture condition. Subsequently, to the culture medium, an ω6 unsaturated fatty acid: linoleic acid (LA, 18: 2n-6), γ-linolenic acid (GLA, 18: 3n-6), dihomo-γ-linolenic acid (DGLA, 20: 3n-6), or arachidonic acid (ARA, 20: 4n-6) was added and cultured at 28° C. for two days. Thereafter the amounts of the corresponding ω3 unsaturated fatty acid: α-linolenic acid (ALA, 18: 3n-3), stearidonic acid (SDA, 18: 4n-3), eicosatetraenoic acid (ETA, 20: 4n-3) or eicosapentaenoic acid (EPA, 20: 5n-3) produced by ω3 unsaturation were measured.

Molecule	conversion into the corresponding ω3 unsaturated fatty acid	Conversion rate (%)	ω3 desaturation activity (expressed in Saccharomyces cerevisiae InvSc1, 28° C.)
CCCCC/C=C\C/C=C\C/C=C\CCCCCCC(=O)O [DGLA, dihomo-γ-linolenic acid]	converted into the corresponding ω3 unsaturated fatty acids	6.90	–
CCCCC/C=C\C/C=C\C/C=C\CCCCC(=O)O [GLA, γ-linolenic acid]	converted into the corresponding ω3 unsaturated fatty acids	8.36	–
CCCCC/C=C\C/C=C\C/C=C\C/C=C\CCCC(=O)O [AA, arachidonic acid]	converted into the corresponding ω3 unsaturated fatty acids	7.86	–
CCCCC/C=C\C/C=C\CCCCCCCC(=O)O [LA, linoleic acid]	converted into the corresponding ω3 unsaturated fatty acids	3.03	–
B1	–	–	an enzyme having ω3 desaturation activity at normal temperature
